Laboratory results published in PubChem BioAssay AID1671294.

Molecular target: Homeodomain-interacting protein kinase 3 (Homo sapiens) (UniProt Q9H422)
Test: HIPK3 kinase inhibitors, dose response, biochemical, Z'-LYTE, FRET, protease-coupled, direct format (AID 1671294)
Conditions: Z'-LYTE FRET kinase activity, recombinant HIPK3

Homeodomain-interacting protein kinase 3 (Homo sapiens), sequence (Q9H422 whole entry, looked up): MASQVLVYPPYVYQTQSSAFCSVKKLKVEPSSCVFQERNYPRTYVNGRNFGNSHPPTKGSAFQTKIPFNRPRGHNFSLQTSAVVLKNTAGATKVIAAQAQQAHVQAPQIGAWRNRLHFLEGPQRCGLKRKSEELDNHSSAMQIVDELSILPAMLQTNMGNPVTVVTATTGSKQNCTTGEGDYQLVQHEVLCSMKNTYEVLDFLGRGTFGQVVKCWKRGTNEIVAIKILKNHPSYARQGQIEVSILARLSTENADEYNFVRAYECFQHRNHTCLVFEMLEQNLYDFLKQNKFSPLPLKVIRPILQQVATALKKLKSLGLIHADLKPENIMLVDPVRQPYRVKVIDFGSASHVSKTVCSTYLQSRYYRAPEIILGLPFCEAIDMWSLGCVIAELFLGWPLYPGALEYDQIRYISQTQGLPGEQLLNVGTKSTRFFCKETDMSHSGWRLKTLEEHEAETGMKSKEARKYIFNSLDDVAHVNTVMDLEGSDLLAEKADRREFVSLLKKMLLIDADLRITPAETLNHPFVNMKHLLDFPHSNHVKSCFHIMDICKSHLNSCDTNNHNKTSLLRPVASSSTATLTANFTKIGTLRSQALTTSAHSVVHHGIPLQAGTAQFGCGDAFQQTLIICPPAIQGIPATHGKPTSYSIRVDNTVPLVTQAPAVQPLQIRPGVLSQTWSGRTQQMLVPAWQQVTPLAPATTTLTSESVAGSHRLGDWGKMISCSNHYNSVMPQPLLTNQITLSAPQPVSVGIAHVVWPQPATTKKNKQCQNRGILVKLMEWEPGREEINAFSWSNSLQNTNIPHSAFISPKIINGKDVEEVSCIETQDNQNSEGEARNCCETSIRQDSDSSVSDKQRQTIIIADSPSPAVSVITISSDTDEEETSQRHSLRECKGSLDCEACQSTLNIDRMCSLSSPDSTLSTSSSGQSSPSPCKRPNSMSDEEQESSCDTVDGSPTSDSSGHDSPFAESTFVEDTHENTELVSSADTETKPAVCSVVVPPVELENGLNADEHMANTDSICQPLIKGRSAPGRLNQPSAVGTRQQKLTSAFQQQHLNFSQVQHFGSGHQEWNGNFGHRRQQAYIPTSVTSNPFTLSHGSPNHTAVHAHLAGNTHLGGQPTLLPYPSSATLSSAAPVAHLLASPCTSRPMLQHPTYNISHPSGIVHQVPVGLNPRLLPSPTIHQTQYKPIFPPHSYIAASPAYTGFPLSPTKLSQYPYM

IC50: 5.1 µM
Structure (SMILES): Brc1c(Br)c(Br)c2n[nH]nc2c1Br
